According to ChEMBL document CHEMBL4825739, “Cannabinoid Receptor Agonists for the Potential Treatment of Pain, Neurological Disorders, Fibrotic Diseases, Obesity, and Many More” (ACS Med Chem Lett, 2021):

What was measured:
Type in all cases: functional, cell-based
Cannabinoid receptor 1 [1] = target: T1, Cannabinoid receptor 1 (Homo sapiens, UniProt P21554); assay: Agonist activity at human CB1 receptor expressed in CHO-K1 cells assessed as […] incubated for 20 mins measured after 60 mins addition of cAMP detect reagent by HTRF analysis
Cannabinoid receptor 2 [2] = target: T2, Cannabinoid receptor 2 (Homo sapiens, UniProt P34972); assay: Agonist activity at human CB2 receptor expressed in CHO-K1 cells assessed as maximum efficacy incubated for 20 mins measured after 60 mins addition of cAMP detect reagent by HTRF analysis relative to control; conditions: filed as agonist, time 80.0 min
Cannabinoid receptor 1 [3] = target: T1, Cannabinoid receptor 1; assay: Agonist activity at human CB1 receptor expressed in CHO-K1 cells assessed as maximum efficacy incubated for 20 mins measured after 60 mins addition of cAMP detect reagent by HTRF analysis relative to control; conditions: filed as agonist
Cannabinoid receptor 2 [4] = target: T2, Cannabinoid receptor 2; assay: Agonist activity at human CB2 receptor expressed in CHO-K1 cells assessed as […] incubated for 20 mins measured after 60 mins addition of cAMP detect reagent by HTRF analysis

T1 sequence (P21554 whole entry): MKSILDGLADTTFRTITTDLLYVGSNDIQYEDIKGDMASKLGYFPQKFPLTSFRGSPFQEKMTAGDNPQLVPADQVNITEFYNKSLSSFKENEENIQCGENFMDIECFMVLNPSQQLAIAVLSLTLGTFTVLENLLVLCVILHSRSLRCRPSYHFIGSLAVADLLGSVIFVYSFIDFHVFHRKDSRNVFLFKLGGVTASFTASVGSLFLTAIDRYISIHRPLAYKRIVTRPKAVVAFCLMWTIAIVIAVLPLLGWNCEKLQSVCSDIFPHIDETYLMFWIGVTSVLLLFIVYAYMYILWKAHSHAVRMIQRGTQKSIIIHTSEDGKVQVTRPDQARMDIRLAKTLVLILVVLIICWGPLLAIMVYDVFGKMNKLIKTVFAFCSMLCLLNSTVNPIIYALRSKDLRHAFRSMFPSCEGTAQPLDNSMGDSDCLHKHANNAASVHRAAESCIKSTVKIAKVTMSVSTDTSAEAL
T2 sequence (P34972 whole entry): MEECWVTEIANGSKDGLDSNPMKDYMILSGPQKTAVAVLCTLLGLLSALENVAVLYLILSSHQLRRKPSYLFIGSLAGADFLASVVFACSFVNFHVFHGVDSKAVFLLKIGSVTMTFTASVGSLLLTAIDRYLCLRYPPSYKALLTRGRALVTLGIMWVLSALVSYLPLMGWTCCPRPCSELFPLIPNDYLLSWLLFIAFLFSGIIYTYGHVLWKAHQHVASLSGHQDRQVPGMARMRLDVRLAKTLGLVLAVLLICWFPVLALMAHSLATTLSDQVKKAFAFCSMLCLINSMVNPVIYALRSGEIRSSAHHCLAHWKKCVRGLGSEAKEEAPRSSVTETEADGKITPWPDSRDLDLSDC

## CC(C)(C)[C@@H](CO)NC(=O)c1nn(-c2cnccn2)c2c1C[C@H]1CCC2O1 (single isomer, unassigned)
Cannabinoid receptor 1 [1]
  EC50: 0.09 nM
Cannabinoid receptor 2 [2]
  Emax: 111%
Cannabinoid receptor 1 [3]
  Emax: 100%
Cannabinoid receptor 2 [4]
  EC50: 422 nM

## O=C(NC12CCC(CC1)CC2)c1nn(-c2c[n+]([O-])ccn2)c2c1CC1CCC2O1 (stereo not given)
Cannabinoid receptor 1 [1]
  EC50: 0.02 nM
Cannabinoid receptor 2 [2]
  Emax: 96.5%
Cannabinoid receptor 1 [3]
  Emax: 99.7%
Cannabinoid receptor 2 [4]
  EC50: 48.5 nM

## O=C(NC12CC(C1)C2)c1nn(-c2c[n+]([O-])ccn2)c2c1CC1CCC2O1 (stereo not given)
Cannabinoid receptor 1 [1]
  EC50: 0.05 nM
Cannabinoid receptor 2 [2]
  Emax: 91%
Cannabinoid receptor 1 [3]
  Emax: 100%
Cannabinoid receptor 2 [4]
  EC50: 1780 nM

## CC(C)(C)c1nnc(-c2nn(-c3c[n+]([O-])ccn3)c3c2CC2CCC3O2)s1 (stereo not given)
Cannabinoid receptor 1 [1]
  EC50: 0.06 nM
Cannabinoid receptor 2 [2]
  Emax: 94.9%
Cannabinoid receptor 1 [3]
  Emax: 99%
Cannabinoid receptor 2 [4]
  EC50: 130 nM

## CC(C)(C)NC(=O)c1nn(-c2ccc(F)cc2F)c2c1CC1CCC2O1 (stereo not given)
Cannabinoid receptor 1 [1]
  EC50: 1.2 nM
Cannabinoid receptor 2 [2]
  Emax: 99%
Cannabinoid receptor 1 [3]
  Emax: 95.6%
Cannabinoid receptor 2 [4]
  EC50: 108 nM

## CC(C)(C)NC(=O)c1c2c(nn1-c1cnccn1)CC1CCC2O1 (stereo not given)
Cannabinoid receptor 1 [1]
  EC50: 1650 nM
Cannabinoid receptor 2 [2]
  Emax: < 50%
Cannabinoid receptor 1 [3]
  Emax: 85.8%

## O=C(NC12CC3CC(CC1C3)C2)c1nn(-c2ccc(F)cc2F)c2c1CC1CCC2O1 (stereo not given)
Cannabinoid receptor 1 [1]
  EC50: 0.08 nM
Cannabinoid receptor 2 [2]
  Emax: 98%
Cannabinoid receptor 1 [3]
  Emax: 99.1%
Cannabinoid receptor 2 [4]
  EC50: 0.7 nM

## CC(C)(C)[C@@H](CO)NC(=O)c1nn(-c2cnccn2)c2c1C[C@@H]1CC[C@H]2O1
Cannabinoid receptor 1 [1]
  EC50: 0.56 nM
Cannabinoid receptor 2 [2]
  Emax: < 50%
Cannabinoid receptor 1 [3]
  Emax: 100%

## O=C(NC1(C(F)(F)F)CCC1)c1nn(-c2cnccn2)c2c1CC1CCC2O1 (stereo not given)
Cannabinoid receptor 1 [1]
  EC50: 0.04 nM
Cannabinoid receptor 2 [2]
  Emax: 90.3%
Cannabinoid receptor 1 [3]
  Emax: 100%
Cannabinoid receptor 2 [4]
  EC50: 571 nM

## CC(C)(C)NC(=O)c1c2c(nn1-c1c[n+]([O-])ccn1)CC1CCC2O1 (stereo not given)
Cannabinoid receptor 1 [1]
  EC50: 2670 nM
Cannabinoid receptor 2 [2]
  Emax: < 50%
Cannabinoid receptor 1 [3]
  Emax: 80.3%

## CC(C)(C)NC(=O)c1c2c(nn1-c1c[n+]([O-])ccn1)C1CCC(C2)O1 (stereo not given)
Cannabinoid receptor 1 [1]
  EC50: 7970 nM
Cannabinoid receptor 2 [2]
  Emax: < 50%
Cannabinoid receptor 1 [3]
  Emax: 66.3%

## CCC(C)(C)c1noc(-c2nn(-c3cnccn3)c3c2CC2CCC3O2)n1 (stereo not given)
Cannabinoid receptor 1 [1]
  EC50: 0.04 nM
Cannabinoid receptor 2 [2]
  Emax: < 50%
Cannabinoid receptor 1 [3]
  Emax: 99.8%

## O=C(NC12CC3CC(CC1C3)C2)c1nn(-c2cnccn2)c2c1CC1CCC2O1 (stereo not given)
Cannabinoid receptor 1 [1]
  EC50: 0.02 nM
Cannabinoid receptor 2 [2]
  Emax: 111%
Cannabinoid receptor 1 [3]
  Emax: 100%
Cannabinoid receptor 2 [4]
  EC50: 16.6 nM

## CC(C)(C)NC(=O)c1c2c(nn1-c1ccc(F)cc1F)C1CCC(C2)O1 (stereo not given)
Cannabinoid receptor 1 [1]
  EC50: 2980 nM
Cannabinoid receptor 2 [2]
  Emax: < 50%
Cannabinoid receptor 1 [3]
  Emax: 72.8%
